{"source": "patent US8835464B2", "about": "“Triazole compounds that modulate HSP90 activity” (Synta Pharmaceuticals Corp., priority 2006, dated 2014)", "note": "pIC50: −log10 of the molar value. Structures can show the parent of a compound that is named as a salt.", "data": [{"test_system": "Hsp90", "test": "IC50 of compounds of the invention, Example B Method 2 (Tables 6-9)", "type": "cell-based, human", "conditions": "Table 7; Her2 degradation / inhibition of Hsp90; Method 2: MV-4-11 cells, 72 hours, Cell Counting Kit-8; read-out: IC50", "values": [{"smiles": "CC(C)c1cc(-c2nnc(Nc3ccccc3)n2-c2ccc3c(ccn3C)c2)c(O)cc1O", "note": "[Compound 1a, 4-Isopropyl-6-[4-(1-methyl-1H-indol-5-yl)-5-phenylamino-4H-[1,2,4]triazol-3-yl]-benzene-1,3-diol]", "pIC50": 5.85}, {"smiles": "CNc1nnc(-c2cc(C(C)C)c(O)cc2O)n1-c1ccc2c(ccn2C)c1", "note": "[Compound 2a, 4-Isopropyl-6-[4-(1-methyl-1H-indol-5-yl)-5-methylamino-4H-[1,2,4]triazol-3-yl]-benzene-1,3-diol]", "pIC50": 5.46}, {"smiles": "CC(C)c1cc(-c2nnc(NCc3ccccc3)n2-c2ccc3c(ccn3C)c2)c(O)cc1O", "note": "[Compound 3a, 4-Isopropyl-6-[4-(1-methyl-1H-indol-5-yl)-5-benzylamino-4H-[1,2,4]triazol-3-yl]-benzene-1,3-diol]", "pIC50": 4.46}, {"smiles": "CC(C)c1cc(-c2nnc(Nc3ccc4ncccc4c3)n2-c2ccc3c(ccn3C)c2)c(O)cc1O", "note": "[Compound 5a, 4-isopropyl-6-(4-(1-methyl-1H-indol-5-yl)-5-(quinolin-6-ylamino)-4H-1,2,4-triazol-3-yl)benzene-1,3-diol]", "pIC50": 6.17}, {"smiles": "CC(C)c1cc(-c2nnc(Nc3cccc(N)c3)n2-c2ccc3c(ccn3C)c2)c(O)cc1O", "note": "[Compound 6a, 4-(5-(3-aminophenylamino)-4-(1-methyl-1H-indol-5-yl)-4H-1,2,4-triazol-3-yl)-6-isopropylbenzene-1,3-diol]", "pIC50": 5.54}, {"smiles": "CC(C)c1cc(-c2nnc(Nc3cccc(C(F)(F)F)c3)n2-c2ccc3c(ccn3C)c2)c(O)cc1O", "note": "[Compound 7a, 4-isopropyl-6-(4-(1-methyl-1H-indol-5-yl)-5-(3-(trifluoromethyl)phenylamino)-4H-1,2,4-triazol-3-yl)benzene-1,3-diol]", "pIC50": "< 5.30"}, {"smiles": "COc1cccc(Nc2nnc(-c3cc(C(C)C)c(O)cc3O)n2-c2ccc3c(ccn3C)c2)c1", "note": "[Compound 8a, 4-isopropyl-6-(5-(3-methoxyphenylamino)-4-(1-methyl-1H-indol-5-yl)-4H-1,2,4-triazol-3-yl)benzene-1,3-diol]", "pIC50": 5.74}, {"smiles": "CC(C)c1cc(-c2nnc(NC(=O)c3ccccc3)n2-c2ccc3c(ccn3C)c2)c(O)cc1O", "note": "[Compound 9a, N-(5-(2,4-dihydroxy-5-isopropylphenyl)-4-(1-methyl-1H-indol-5-yl)-4H-1,2,4-triazol-3-yl)benzamide]", "pIC50": 5.59}, {"smiles": "Cc1cc(C(=O)Nc2nnc(-c3cc(C(C)C)c(O)cc3O)n2-c2ccc3c(ccn3C)c2)no1", "note": "[Compound 10a, N-(5-(2,4-dihydroxy-5-isopropylphenyl)-4-(1-methyl-1H-indol-5-yl)-4H-1,2,4-triazol-3-yl)-5-methylisoxazole-3-carboxamide]", "pIC50": 5.10}, {"smiles": "CC(=O)Nc1nnc(-c2cc(C(C)C)c(O)cc2O)n1-c1ccc2c(ccn2C)c1", "note": "[Compound 11a, N-(5-(2,4-dihydroxy-5-isopropylphenyl)-4-(1-methyl-1H-indol-5-yl)-4H-1,2,4-triazol-3-yl)acetamide]", "pIC50": 6.42}, {"smiles": "CCCC(=O)Nc1nnc(-c2cc(C(C)C)c(O)cc2O)n1-c1ccc2c(ccn2C)c1", "note": "[Compound 12a, N-(5-(2,4-dihydroxy-5-isopropylphenyl)-4-(1-methyl-1H-indol-5-yl)-4H-1,2,4-triazol-3-yl)butyramide]", "pIC50": 5.85}, {"smiles": "COCC(=O)Nc1nnc(-c2cc(C(C)C)c(O)cc2O)n1-c1ccc2c(ccn2C)c1", "note": "[Compound 13a, N-(5-(2,4-dihydroxy-5-isopropylphenyl)-4-(1-methyl-1H-indol-5-yl)-4H-1,2,4-triazol-3-yl)-2-methoxyacetamide]", "pIC50": 5.74}]}, {"test_system": "Hsp90", "test": "IC50 of compounds of the invention, Example B Method 2 (Tables 6-9)", "type": "cell-based, human", "conditions": "Table 8; Her2 degradation / inhibition of Hsp90; Method 2: MV-4-11 cells, 72 hours, Cell Counting Kit-8", "values": [{"smiles": "CCNC(=O)Sc1nnc(-c2ccc(OC(=O)N(C)C)cc2OC(=O)N(C)C)n1-c1cccc2ccccc12", "note": "[Compound 6b, 4-(5-(ethylcarbamoylthio)-4-(naphthalen-1-yl)-4H-1,2,4-triazol-3-yl)-1,3-phenylene bis(dimethyl carbamate)]", "pIC50": "< 4.00"}]}, {"test_system": "Hsp90", "test": "IC50 of compounds of the invention, Example B Method 2 (Tables 6-9)", "type": "cell-based, human", "conditions": "Table 8; Her2 degradation / inhibition of Hsp90; Method 2: MV-4-11 cells, 72 hours, Cell Counting Kit-8; read-out: IC50", "values": [{"smiles": "CCc1cc(-c2nnc(S)n2-c2cccc3ccccc23)c(OC(=O)C(C)(C)C)cc1OC(=O)C(C)(C)C", "note": "[Compound 3b, 4-ethyl-6-(5-mercapto-4-(naphthalen-1-yl)-4H-1,2,4-triazol-3-yl)-1,3-phenylene bis(2,2-dimethylpropanoate)]", "pIC50": "< 5.70"}, {"smiles": "CCc1cc(-c2nnc(S)n2-c2cccc3ccccc23)c(OC(=O)c2ccccc2)cc1OC(=O)c1ccccc1", "note": "[Compound 4b, 4-ethyl-6-(5-mercapto-4-(naphthalen-1-yl)-4H-1,2,4-triazol-3-yl)-1,3-phenylene dibenzoate]", "pIC50": "< 5.70"}, {"smiles": "COCCOc1ccc(-c2nnc(S)n2-c2cccc3ccccc23)c(O)c1", "note": "[Compound 5b, 2-(5-mercapto-4-(naphthalen-1-yl)-4H 1,2,4-triazol-3-yl)-5-(2-methoxyethoxy) phenol]", "pIC50": 4.52}, {"smiles": "CC(C)c1cc(-c2nnc(SSc3nnc(-c4cc(C(C)C)c(O)cc4O)n3-c3ccc(N(C)C)cc3)n2-c2ccc(N(C)C)cc2)c(O)cc1O", "note": "[Compound 7b, 6,6′-(5,6-disulfanediylbis(4-(4-(dimethylamino)phenyl)-4H-1,2,4-triazole-5,3-diyl))bis(4-isopropylbenzene-1,3-diol)]", "pIC50": 7.24}, {"smiles": "CC(=O)n1ccc2cc(-n3c(O)nnc3-c3cc(C(C)C)c(O)cc3O)ccc21", "note": "[Compound 9b, 1-(5-(3-(2,4-dihydroxy-5-isopropylphenyl)-5-hydroxy-4H-1,2,4-triazol-4-yl)-1H-indol-1-yl)ethanone]", "pIC50": 7.40}, {"smiles": "CC(C)c1cc(-c2nnc(O)n2-c2ccc3c(ccn3C(=O)CCNC(=O)OC(C)(C)C)c2)c(O)cc1O", "note": "[Compound 10b, tert-butyl 3-(5-(3-(2,4-dihydroxy-5-isopropylphenyl)-5-hydroxy-4H-1,2,4-triazol-4-yl)-1H-indol-1-yl)-3-oxopropylcarbamate]", "pIC50": "> 6.96"}, {"smiles": "COCCC(=O)n1ccc2cc(-n3c(O)nnc3-c3cc(C(C)C)c(O)cc3O)ccc21", "note": "[Compound 11b, 3-(2,4-dihydroxy-5-isopropylphenyl)-4-(1-(3-methoxypropanoyl)-1H-indol-5-yl)-1H-1,2,4-triazol-5(4H)-one]", "pIC50": "> 7.00"}, {"smiles": "CC(C)c1cc(-c2nn(COC(=O)C(N)C(C)C)c(=O)n2-c2ccc3c(ccn3C)c2)c(O)cc1O", "note": "(centres unmarked) [Compound 12b, (3-(2,4-dihydroxy-5-isopropylphenyl)-4-(1-methyl-1H-indol-5-yl)-5-oxo-4,5-dihydro-1H-1,2,4-triazol-1-yl)methyl 2-amino-3-methylbutanoate]", "pIC50": 7.54}]}, {"test_system": "Hsp90", "test": "IC50 of compounds of the invention, Example B Method 2 (Tables 6-9)", "type": "cell-based, human", "conditions": "Table 9; Her2 degradation / inhibition of Hsp90; Method 2: MV-4-11 cells, 72 hours, Cell Counting Kit-8; dihydrochloride; read-out: IC50 Range", "values": [{"smiles": "CC(C)c1cc(-c2nnc(O)n2-c2ccc(N(C)C)nc2)c(O)cc1O", "note": "[Compound 7d, 4-(4-(6-(dimethylamino)pyridin-3-yl)-5-hydroxy-4H-1,2,4-triazol-3-yl)-6-isopropylbenzene-1,3-diol dihydrochloride]", "pIC50": 7.33}, {"smiles": "CC(C)c1cc(-c2nnc(O)n2-c2ccc(N3CCN(C)CC3)nc2)c(O)cc1O", "note": "[Compound 9d, 4-(5-hydroxy-4-(6-(4-methylpiperazin-1-yl)pyridin-3-yl)-4H-1,2,4-triazol-3-yl)-6-isopropylbenzene-1,3-diol dihydrochloride]", "pIC50": 6.66}]}, {"test_system": "Hsp90", "test": "IC50 of compounds of the invention, Example B Method 2 (Tables 6-9)", "type": "cell-based, human", "conditions": "Table 9; Her2 degradation / inhibition of Hsp90; Method 2: MV-4-11 cells, 72 hours, Cell Counting Kit-8; read-out: IC50 Range", "values": [{"smiles": "COCCN(C)c1ccc(-n2c(O)nnc2-c2cc(C(C)C)c(O)cc2O)cn1", "note": "[Compound 1d, 4-(4-(6-(N-(2-methoxyethyl)-N-methylamino)pyridin-3-yl)-5-hydroxy-4H-1,2,4-triazol-3-yl)-6-isopropylbenzene-1,3-diol]", "pIC50": 7.52}, {"smiles": "COC(CN(C)c1ccc(-n2c(O)nnc2-c2cc(C(C)C)c(O)cc2O)cn1)OC", "note": "[Compound 2d, 4-(4-(6-(N-(2,2-dimethoxyethyl)-N-methylamino)pyridin-3-yl)-5-hydroxy-4H-1,2,4-triazol-3-yl)-6-isopropylbenzene-1,3-diol]", "pIC50": 6.97}, {"smiles": "CC(C)c1cc(-c2nnc(O)n2-c2ccc(N(C)CC(=O)O)nc2)c(O)cc1O", "note": "[Compound 4d, 2-(N-(5-(3-(2,4-dihydroxy-5-isopropylphenyl)-5-oxo-1H-1,2,4-triazol-4(5H)-yl)pyridin-2-yl)-N-methylamino)acetic acid]", "pIC50": 6.48}, {"smiles": "CC(C)c1cc(-c2nnc(O)n2-c2ccc(N(C)CCN(C)C)nc2)c(O)cc1O", "note": "[Compound 5d, 4-(4-(6-(N-(2-(dimethylamino)ethyl)-N-methylamino)pyridin-3-yl)-5-hydroxy-4H-1,2,4-triazol-3-yl)-6-isopropylbenzene-1,3-diol]", "pIC50": 6.66}, {"smiles": "CC(C)c1cc(-c2nnc(O)n2-c2ccc(N(C)C)nc2)c(O)cc1O", "note": "[Compound 6d, 4-(4-(6-(dimethylamino)pyridin-3-yl)-5-hydroxy-4H-1,2,4-triazol-3-yl)-6-isopropylbenzene-1,3-diol]", "pIC50": 7.24}, {"smiles": "CC(C)c1cc(-c2nnc(O)n2-c2ccc(N3CCN(C)CC3)nc2)c(O)cc1O", "note": "[Compound 8d, 4-(5-hydroxy-4-(6-(4-methylpiperazin-1-yl)pyridin-3-yl)-4H-1,2,4-triazol-3-yl)-6-isopropylbenzene-1,3-diol]", "pIC50": 6.61}, {"smiles": "CC(C)c1cc(-c2nnc(O)n2-c2cccc(S(=O)(=O)N(C)CCN(C)C)c2)c(O)cc1O", "note": "[Compound 10d, 3-(3-(2,4-dihydroxy-5-isopropylphenyl)-5-hydroxy-4H-1,2,4-triazol-4-yl)-N-(2-(dimethylamino)ethyl)-N-methylbenzenesulfonamide]", "pIC50": "< 6.48"}, {"smiles": "Cc1ccc(-n2c(O)nnc2-c2cc(C(C)C)c(O)cc2O)cc1S(=O)(=O)N(C)C", "note": "[Compound 11d, 5-(3-(2,4-dihydroxy-5-isopropylphenyl)-5-hydroxy-4H-1,2,4-triazol-4-yl)-N,N,2-trimethylbenzenesulfonamide]", "pIC50": 7.03}, {"smiles": "CC(C)c1cc(-c2nnc(O)n2-c2ccc(N(C)C)c(S(N)(=O)=O)c2)c(O)cc1O", "note": "[Compound 12d, 5-(3-(2,4-dihydroxy-5-isopropylphenyl)-5-hydroxy-4H-1,2,4-triazol-4-yl)-2-(dimethylamino)benzene sulfonamide]", "pIC50": 6.47}]}]}
